For the experiment, the system named is S. aureus. Put plainly: MIC of tobramycin (previously determined). The experiment is classed as cell-based. The settings on record: Staphylococcus aureus.

Structures are written as SMILES.

In the case of `NC[C@H]1O[C@H](O[C@H]2[C@H](O)[C@@H](O[C@H]3O[C@H](CO)[C@@H](O)[C@H](N)[C@H]3O)[C@H](N)C[C@@H]2N)[C@H](N)C[C@@H]1O` [tobramycin], the minimal inhibitory concentration (MIC) is 4 µg/mL.

The values are drawn from patent publication US10207030B2, “Implantable devices for bone or joint defects” (University of Utah Research Foundation, priority 2013, dated 2019).
